One assay concerns the target T1, human AXL (473-end) (Homo sapiens, UniProt P30530).
T1 construct: human AXL (473-end); purchased SignalChem, Canada
T1 sequence (P30530 473-894 limits assumed): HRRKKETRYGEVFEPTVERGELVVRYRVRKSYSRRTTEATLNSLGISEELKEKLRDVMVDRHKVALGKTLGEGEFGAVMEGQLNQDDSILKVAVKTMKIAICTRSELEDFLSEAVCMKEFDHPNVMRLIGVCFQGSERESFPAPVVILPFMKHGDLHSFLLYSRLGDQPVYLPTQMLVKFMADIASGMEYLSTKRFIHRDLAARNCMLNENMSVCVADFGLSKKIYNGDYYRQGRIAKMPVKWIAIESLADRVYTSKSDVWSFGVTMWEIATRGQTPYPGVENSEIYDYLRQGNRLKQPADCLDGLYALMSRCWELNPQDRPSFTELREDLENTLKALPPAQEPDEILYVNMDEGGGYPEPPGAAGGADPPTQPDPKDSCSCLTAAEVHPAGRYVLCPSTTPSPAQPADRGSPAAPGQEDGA
The assay can be described thus: HTRF kinase activity biochemical assay, AXL.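 Note: phosphorylation of a biotinylated tyrosine kinase substrate detected via Eu3+-cryptate anti-TK antibody and streptavidin-XL665, fluorescence read after a 1 h incubation at room temperature.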 As to conditions: recombinant kinase, 10 uM ATP, 30 minutes pre-incubation; read-out: HTRF AXL IC50. In general terms: TR-FRET usually uses a lanthanide donor and a delayed reading to cut background.

For the next assay, the target named is T2, TYRO3 (455-end) (Homo sapiens, UniProt Q06418).
T2 construct: TYRO3 (455-end); purchased SignalChem, Canada
T2 sequence (Q06418 455-890 limits assumed): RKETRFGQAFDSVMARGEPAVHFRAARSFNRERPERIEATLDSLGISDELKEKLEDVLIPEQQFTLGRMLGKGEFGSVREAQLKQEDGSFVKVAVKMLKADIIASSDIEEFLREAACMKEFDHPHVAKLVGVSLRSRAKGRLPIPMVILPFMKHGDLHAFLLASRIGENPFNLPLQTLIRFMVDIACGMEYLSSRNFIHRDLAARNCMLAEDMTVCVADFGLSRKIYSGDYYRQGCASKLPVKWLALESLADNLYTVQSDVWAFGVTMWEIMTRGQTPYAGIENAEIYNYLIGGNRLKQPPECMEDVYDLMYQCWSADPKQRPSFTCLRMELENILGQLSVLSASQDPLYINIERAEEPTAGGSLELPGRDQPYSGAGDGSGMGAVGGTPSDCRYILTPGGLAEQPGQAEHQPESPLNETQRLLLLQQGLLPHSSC
The assay can be described thus: HTRF kinase activity biochemical assay, TYRO3.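 Note: biotinylated tyrosine kinase substrate phosphorylation detected via streptavidin-XL665 and Eu3+-cryptate anti-phospho antibody time-resolved fluorescence, read after 1 h detection at room temperature, 384-well format.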 As to conditions: recombinant kinase, 10 uM ATP, 30 minutes pre-incubation; read-out: HTRF TYRO IC50.

A further assay addresses T3, human MER (528-end) (Homo sapiens, UniProt Q12866).
T3 construct: human MER (528-end); purchased Carnabio, Japan
T3 sequence (Q12866 528-999 limits assumed): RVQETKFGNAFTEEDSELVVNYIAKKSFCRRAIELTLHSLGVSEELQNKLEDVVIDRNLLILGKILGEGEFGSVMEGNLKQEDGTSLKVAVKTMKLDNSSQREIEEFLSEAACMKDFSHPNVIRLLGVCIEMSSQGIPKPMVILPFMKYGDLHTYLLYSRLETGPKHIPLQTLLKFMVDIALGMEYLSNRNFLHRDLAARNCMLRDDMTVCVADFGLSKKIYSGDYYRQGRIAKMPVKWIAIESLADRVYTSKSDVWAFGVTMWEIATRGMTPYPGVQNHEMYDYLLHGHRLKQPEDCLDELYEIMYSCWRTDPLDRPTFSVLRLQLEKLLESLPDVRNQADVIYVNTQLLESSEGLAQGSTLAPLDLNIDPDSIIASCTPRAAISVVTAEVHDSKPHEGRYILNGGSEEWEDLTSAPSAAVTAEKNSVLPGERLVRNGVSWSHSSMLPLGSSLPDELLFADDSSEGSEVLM
The assay can be described thus: HTRF kinase activity biochemical assay, MER.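 Note: phosphorylation of a biotin-tagged tyrosine kinase substrate detected by Eu3+-cryptate antibody and streptavidin-XL665 time-resolved fluorescence, read after 1 h at room temperature.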 As to conditions: recombinant kinase, 10 uM ATP, 30 minutes pre-incubation; read-out: HTRF MERTK IC50.

The structures appear in SMILES notation.

What is called IC50 is the point on the concentration scale where inhibition reaches its midpoint. As for `Cn1cc(Nc2ncc(C3CN(c4nc5ccc(CC(=O)O)cc5o4)C3)nc2C(N)=O)cn1` [Example 65C, [2-(3-{6-carbamoyl-5-[(1-methyl-1H-pyrazol-4-yl)amino]pyrazin-2-yl}azetidin-1-yl)-1,3-benzoxazol-6-yl]acetic acid], the IC50 at human AXL (473-end) came out at 0.095 µM; at TYRO3 (455-end), 3.53 µM; on human MER (528-end), 0.035 µM.
`Cn1cc(Nc2ncc(C3CN(c4nc5ccc(CCC6(O)COC6)cc5o4)C3)nc2C(N)=O)cn1` [Example 45, 6-(1-{6-[2-(3-hydroxyoxetan-3-yl)ethyl]-1,3-benzoxazol-2-yl}azetidin-3-yl)-3-[(1-methyl-1H-pyrazol-4-yl)amino]pyrazine-2-carboxamide]: the figures for the concentration for half-maximal inhibition (IC50) at human AXL (473-end), on TYRO3 (455-end) and at human MER (528-end) were 0.009 µM, 0.62 µM and 0.003 µM, respectively.
Taken in the same sequence, the figures for `Cn1cc(Nc2ncc(C3CN(c4nc5ccc(C(C)(C)CO)cc5o4)C3)nc2C(N)=O)cn1` [Example 111, 6-{1-[6-(1-hydroxy-2-methylpropan-2-yl)-1,3-benzoxazol-2-yl]azetidin-3-yl}-3-[(1-methyl-1H-pyrazol-4-yl)amino]pyrazine-2-carboxamide] were 0.006 µM, 0.64 µM and 0.005 µM.
As to `CC1(C)OCC(Cn2cc(Nc3ncc(C4CN(c5nc6ccc(F)cc6o5)C4)nc3C(N)=O)cn2)O1` (stereo not drawn) [Example 36D, 3-({1-[(2,2-dimethyl-1,3-dioxolan-4-yl)methyl]-1H-pyrazol-4-yl}amino)-6-[1-(6-fluoro-1,3-benzoxazol-2-yl)azetidin-3-yl]pyrazine-2-carboxamide], the 50% inhibitory concentration (IC50) at human AXL (473-end) was 0.01 µM; on TYRO3 (455-end), 0.43 µM; on human MER (528-end) it was 0.003 µM.
Consider `Cn1cc(Nc2ncc(C3CN(c4nc5ccc(O[C@H]6CCOC6)cc5o4)C3)nc2C(N)=O)cn1` [Example 69, 3-[(1-methyl-1H-pyrazol-4-yl)amino]-6-[1-(6-{[(3S)-oxolan-3-yl]oxy}-1,3-benzoxazol-2-yl)azetidin-3-yl]pyrazine-2-carboxamide], for which the IC50 at human AXL (473-end) turned out to be 0.008 µM; at TYRO3 (455-end) it was 0.57 µM; on human MER (528-end) it was 0.002 µM.
Consider `Cn1cc(Nc2ncc(C3CN(c4nc5ccc(OCC(C)(C)C#N)cc5o4)C3)nc2C(N)=O)cn1` [Example 107, 6-{1-[6-(2-cyano-2-methylpropoxy)-1,3-benzoxazol-2-yl]azetidin-3-yl}-3-[(1-methyl-1H-pyrazol-4-yl)amino]pyrazine-2-carboxamide], for which the half-maximal inhibitory concentration (IC50) on human AXL (473-end) is 0.0015 µM; on TYRO3 (455-end) it was 0.046 µM; at human MER (528-end), under 0.001 µM.
Taken in the same sequence, the figures for `C=CCOP(=O)(OCC=C)OC(C)(C)CCOc1ccc2nc(N3CC(c4cnc(Nc5cnn(C)c5)c(C(N)=O)n4)C3)oc2c1` [Example 77A, 4-{[2-(3-f{6-carbamoyl-5-[(1-methyl-1H-pyrazol-4-yl)amino]pyrazin-2-yl}azetidin-1-yl)-1,3-benzoxazol-6-yl]oxy}-2-methylbutan-2-yl diprop-2-en-1-yl phosphate] were 0.006 µM, 0.25 µM and 0.002 µM.
As for `Cn1cc(Nc2ncc(C3CN(c4nc5ccc(OCC(CO)CO)cc5o4)C3)nc2C(N)=O)cn1` [Example 51, 6-(1-{6-[3-hydroxy-2-(hydroxymethyl)propoxy]-1,3-benzoxazol-2-yl}azetidin-3-yl)-3-[(1-methyl-1H-pyrazol-4-yl)amino]pyrazine-2-carboxamide], the IC50 was determined as 0.006 µM on human AXL (473-end), 1.74 µM at TYRO3 (455-end) and 0.003 µM at human MER (528-end).
Taken in the same sequence, the figures for `CCOC(=O)Cn1cc(COc2ccc3nc(N4CC(c5cnc(Nc6cnn(C)c6)c(C(N)=O)n5)C4)oc3c2)cn1` [Example 104C, ethyl [4-({[2-(3-{6-carbamoyl-5-[(1-methyl-1H-pyrazol-4-yl)amino]pyrazin-2-yl}azetidin-1-yl)-1,3-benzoxazol-6-yl]oxy}methyl)-1H-pyrazol-1-yl]acetate] were 0.027 µM, 0.62 µM and 0.004 µM.
For the molecule `Cn1cc(Nc2ncc(C3CN(c4nc5ccc(/C=C/CO)cc5o4)C3)nc2C(N)=O)cn1` [Example 32A, 6-(1-{6-[(1E)-3-hydroxyprop-1-en-1-yl]-1,3-benzoxazol-2-yl}azetidin-3-yl)-3-[(1-methyl-1H-pyrazol-4-yl)amino]pyrazine-2-carboxamide], the half-maximal inhibitory concentration (IC50) is 0.002 µM at human AXL (473-end), 0.14 µM at TYRO3 (455-end) and under 0.001 µM at human MER (528-end).
In the case of `Cn1cc(Nc2ncc(C3CN(c4nc5ccc(OCc6cnn(CCO)c6)cc5o4)C3)nc2C(N)=O)cn1` [Example 104, 6-[1-(6-{[1-(2-hydroxyethyl)-1H-pyrazol-4-yl]methoxy}-1,3-benzoxazol-2-yl)azetidin-3-yl]-3-[(1-methyl-1H-pyrazol-4-yl)amino]pyrazine-2-carboxamide], the half-inhibitory concentration (IC50) on human AXL (473-end) was determined as 0.059 µM; at TYRO3 (455-end), 3.5 µM; on human MER (528-end), 0.008 µM.
As for `C[Si](C)(C)CCOCn1cc(Nc2ncc(C3CN(c4nc5ccc(O)cc5o4)C3)nc2C(N)=O)cn1` [Example 0, 6-[1-(6-hydroxy-1,3-benzoxazol-2-yl)azetidin-3-yl]-3-[(1-{[2-(trimethylsilyl)ethoxy]methyl}-1H-pyrazol-4-yl)amino]pyrazine-2-carboxamide], the values for the IC50 at human AXL (473-end), on TYRO3 (455-end) and on human MER (528-end) were 0.06 µM, 2.68 µM and 0.034 µM, respectively.
Taken in the same sequence, the figures for `Cn1cc(Nc2ncc(C3CN(c4nc5ccc(C6CCCC6)cc5o4)C3)nc2C(N)=O)cn1` [Example 10, 6-[1-(6-cyclopentyl-1,3-benzoxazol-2-yl)azetidin-3-yl]-3-[(1-methyl-1H-pyrazol-4-yl)amino]pyrazine-2-carboxamide] were under 0.001 µM, 0.11 µM and under 0.001 µM.
Turning to `Cn1cc(Nc2ncc(C3CN(c4nc5ccc(C(=O)NC6CC6)cc5o4)C3)nc2C(N)=O)cn1` [Example 53, 2-(3-{6-carbamoyl-5-[(1-methyl-1H-pyrazol-4-yl)amino]pyrazin-2-yl}azetidin-1-yl)-N-cyclopropyl-1,3-benzoxazole-6-carboxamide], the concentration for half-maximal inhibition (IC50) on human AXL (473-end) amounted to 0.002 µM; at TYRO3 (455-end), 2.67 µM; at human MER (528-end), 0.004 µM.
With `Cn1cc(COc2ccc3nc(N4CC(c5cnc(Nc6cnn(C)c6)c(C(N)=O)n5)C4)oc3c2)cn1` [Example 97, 3-[(1-methyl-1H-pyrazol-4-yl)amino]-6-(1-{6-[(1-methyl-1H-pyrazol-4-yl)methoxy]-1,3-benzoxazol-2-yl}azetidin-3-yl)pyrazine-2-carboxamide], the figures for the IC50 on human AXL (473-end), at TYRO3 (455-end) and at human MER (528-end) were 0.004 µM, 0.15 µM and 0.001 µM, respectively.
As to `Cc1ccc2nc(N3CC(c4cnc(Nc5cnn(CCO)c5)c(C(N)=O)n4)C3)oc2c1` [Example 54, 3-{[1-(2-hydroxyethyl)-1H-pyrazol-4-yl]amino}-6-[1-(6-methyl-1,3-benzoxazol-2-yl)azetidin-3-yl]pyrazine-2-carboxamide], the results for the half-maximal inhibitory concentration (IC50) at human AXL (473-end), at TYRO3 (455-end) and at human MER (528-end) were 0.023 µM, 0.62 µM and 0.005 µM, respectively.
Turning to `Cn1cc(Nc2ccc(C3CN(c4nc5ccc(Oc6cccnn6)cc5o4)C3)nc2C(N)=O)cn1` [Example 103, 3-[(1-methyl-1H-pyrazol-4-yl)amino]-6-(1-{6-[(pyridazin-3-yl)oxy]-1,3-benzoxazol-2-yl}azetidin-3-yl)pyridine-2-carboxamide], the IC50 is 0.003 µM at human AXL (473-end), 0.71 µM at TYRO3 (455-end) and under 0.001 µM at human MER (528-end).
Taken in the same sequence, the figures for `Cn1cc(Nc2ncc(C3CN(c4nc5ccc(-c6cnn(CCO)c6)cc5o4)C3)nc2C(N)=O)cn1` [Example 90, 6-(1-{6-[1-(2-hydroxyethyl)-1H-pyrazol-4-yl]-1,3-benzoxazol-2-yl}azetidin-3-yl)-3-[(1-methyl-1H-pyrazol-4-yl)amino]pyrazine-2-carboxamide] were 0.004 µM, 0.88 µM and 0.002 µM.

For the origin of these results see US20260232658A1, “AZETIDINYL BENZOXAZOLE COMPOUNDS AND THEIR USE AS MER AND AXL INHIBITORS” (DONG-A ST CO., LTD., priority 2022, published 2026).
